Measured values as given in patent publication US7101878B1 (Agouron Pharmaceuticals, Inc., priority 1998, dated 2006).
Read-outs that look alike come from different tables or passages of the source.

Target: T1, human GnRH receptor (Homo sapiens, UniProt P30968)
T1 construct: expressed in transfected cells; host or cells: HEK 293 (hGnRH-R/293, from Dr. Stuart Sealfon)
T1 sequence (P30968 1-328): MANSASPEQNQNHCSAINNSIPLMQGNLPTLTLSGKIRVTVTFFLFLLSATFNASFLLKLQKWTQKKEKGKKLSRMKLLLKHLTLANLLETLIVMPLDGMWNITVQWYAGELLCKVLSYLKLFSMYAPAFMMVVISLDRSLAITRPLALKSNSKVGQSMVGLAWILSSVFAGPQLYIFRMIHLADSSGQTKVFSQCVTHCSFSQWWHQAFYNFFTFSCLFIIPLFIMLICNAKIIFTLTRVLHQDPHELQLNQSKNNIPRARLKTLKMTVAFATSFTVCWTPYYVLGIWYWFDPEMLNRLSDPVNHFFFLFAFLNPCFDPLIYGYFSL
Assay: Radioligand binding, 125I-GnRH-A displacement, membranes of HEK 293 cells with human GnRH receptor
Outline: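 Bound tracer was separated by filtration through polyethyleneimine-soaked GF/C filters and counted by liquid scintillation. IC50 from curve fitting; other species were tested under the same conditions.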

[1] = 1 uM, read-out: % Inhib. @ 1 uM hGnRH
[2] = 1 h, repeat of % Inhib. at 1 uM, read-out: Repeats @ 1 uM hGnRH

inhibition at 1 µM [1]	inhibition at 1 µM [2]	Structure (SMILES)	further results
27%	31%	Cc1cc2c(cc1Cc1ccc(C(=O)NCCCN3CCCCC3C)o1)C(C)(C)CCC2(C)C (stereo not drawn) [drawing 983]	–
62%	67%	Cc1cc2c(cc1Cc1ccc(C(=O)NCc3ccccn3)o1)C(C)(C)CCC2(C)C [drawing 984]	–
50%	62%	Cc1cc2c(cc1Cc1ccc(C(=O)NCCc3ccccn3)o1)C(C)(C)CCC2(C)C [drawing 985]	–
-7%	0%	Cc1cc2c(cc1Cc1ccc(C(=O)NCCN3CCCC3)o1)C(C)(C)CCC2(C)C [drawing 986]	–
63%	69%	Cc1cc2c(cc1Cc1ccc(C(=O)NCCN3CCOCC3)o1)C(C)(C)CCC2(C)C [drawing 987]	–
38%	41%	Cc1cc2c(cc1Cc1ccc(C(=O)NCCc3ccc(S(N)(=O)=O)cc3)o1)C(C)(C)CCC2(C)C [drawing 989]	–
86%	90%	Cc1cc2c(cc1Cc1ccc(C(=O)NCCCc3ccccc3)o1)C(C)(C)CCC2(C)C [drawing 990]	–
52%	54%	CC(=O)NCCNC(=O)c1ccc(Cc2cc3c(cc2C)C(C)(C)CCC3(C)C)o1 [drawing 991]	–
75%	92%	Cc1cc2c(cc1Cc1ccc(C(=O)NCc3ccc4c(c3)OCO4)o1)C(C)(C)CCC2(C)C [drawing 992]	–
47%	52%	COc1ccc(CCNC(=O)c2ccc(Cc3cc4c(cc3C)C(C)(C)CCC4(C)C)o2)cc1OC [drawing 993]	–
49%	50%	COc1cccc(CCNC(=O)c2ccc(Cc3cc4c(cc3C)C(C)(C)CCC4(C)C)o2)c1 [drawing 994]	–
60%	62%	COc1cc(CNC(=O)c2ccc(Cc3cc4c(cc3C)C(C)(C)CCC4(C)C)o2)cc(OC)c1OC [drawing 995]	–
23%	36%	COc1ccc(OC)c(CCNC(=O)c2ccc(Cc3cc4c(cc3C)C(C)(C)CCC4(C)C)o2)c1 [drawing 996]	–
11%	6%	Cc1cc2c(cc1Cc1ccc(C(=O)NCc3ccccc3C(F)(F)F)o1)C(C)(C)CCC2(C)C [drawing 997]	–
16%	23%	Cc1cc2c(cc1Cc1ccc(C(=O)NCCc3ccc(Cl)cc3Cl)o1)C(C)(C)CCC2(C)C [drawing 998]	–
67%	70%	Cc1cc2c(cc1Cc1ccc(C(=O)NCCCN(C)c3ccccc3)o1)C(C)(C)CCC2(C)C [drawing 1000]	–
13%	8%	Cc1cc2c(cc1Cc1ccc(C(=O)Nc3ccc4[nH]c(-c5ccccn5)nc4c3)o1)C(C)(C)CCC2(C)C [drawing 1002]	–
13%	33%	Cc1cc2c(cc1Cc1ccc(C(=O)NCCCN(C)CCCN)o1)C(C)(C)CCC2(C)C [drawing 1005]	–
31%	45%	Cc1cc2c(cc1Cc1ccc(C(=O)NCCc3c[nH]c4ccc(Cl)cc34)o1)C(C)(C)CCC2(C)C [drawing 1007]	–
-13%	-9%	Cc1cc2c(cc1Cc1ccc(C(=O)Nc3nc(N(C)C)nc4nc[nH]c34)o1)C(C)(C)CCC2(C)C [drawing 1008]	–
–	–	Cc1cnc(CNC(=O)c2ccc(Cc3cc4c(cc3C)C(C)(C)CCC4(C)C)o2)cn1 [drawing 1009]	inhibition at 1 µM (1 h, read-out: Repeats @ 1 uM hGnRH): 107%; inhibition at 1 µM (read-out: % Inhib. @ 1 uM hGnRH): 102%
78%	81%	Cc1cc2c(cc1Cc1ccc(C(=O)NCCc3c[nH]c4ccccc34)o1)C(C)(C)CCC2(C)C [drawing 1012]	–
87%	92%	Cc1cc2c(cc1Cc1ccc(C(=O)NCc3ccc(-c4csnn4)cc3)o1)C(C)(C)CCC2(C)C [drawing 1013]	–
44%	45%	Cc1cc2c(cc1Cc1ccc(C(=O)NCc3ccc(C(=O)O)cc3)o1)C(C)(C)CCC2(C)C [drawing 1016]	–
57%	64%	Cc1cc2c(cc1Cc1ccc(C(=O)NCCc3ccc(N)cc3)o1)C(C)(C)CCC2(C)C [drawing 1017]	–
18%	9%	Cc1cc2c(cc1Cc1ccc(C(=O)NCC(F)(F)F)o1)C(C)(C)CCC2(C)C [drawing 1018]	–
33%	89%	Cc1cc2c(cc1Cc1ccc(C(=O)NCCc3cccc(C(F)(F)F)c3)o1)C(C)(C)CCC2(C)C [drawing 1020]	–

inhibition at 1 µM [1]	inhibition at 1 µM [2]	Structure (SMILES)	further results
83%	86%	Cc1cc2c(cc1Cc1ccc(C(=O)NCC(=O)Nc3ccc([N+](=O)[O-])cc3)o1)C(C)(C)CCC2(C)C [drawing 1022]	–
63%	64%	Cc1cc2c(cc1Cc1ccc(C(=O)NCCc3cccs3)o1)C(C)(C)CCC2(C)C [drawing 1023]	–
66%	76%	Cc1cc2c(cc1Cc1ccc(C(=O)NCC3CCC(C(=O)O)CC3)o1)C(C)(C)CCC2(C)C (stereo not drawn) [drawing 1024]	–
83%	84%	Cc1cc2c(cc1Cc1ccc(C(=O)NCCc3ccncc3)o1)C(C)(C)CCC2(C)C [drawing 1025]	–
24%	35%	COc1cc(CNC(=O)c2ccc(Cc3cc4c(cc3C)C(C)(C)CCC4(C)C)o2)cc(OC)c1 [drawing 1026]	–
-22%	-25%	CNCCCNC(=O)c1ccc(Cc2cc3c(cc2C)C(C)(C)CCC3(C)C)o1 [drawing 1027]	–
-4%	2%	Cc1cc2c(cc1Cc1ccc(C(=O)NCc3cccc(NC(=O)N(Cc4ccccc4)c4ccccc4)c3)o1)C(C)(C)CCC2(C)C [drawing 1029]	–
55%	60%	Cc1cc2c(cc1Cc1ccc(C(=O)NCc3ccc(F)c(F)c3)o1)C(C)(C)CCC2(C)C [drawing 1030]	–
22%	28%	Cc1cc2c(cc1Cc1ccc(C(=O)NCCc3c[nH]cn3)o1)C(C)(C)CCC2(C)C [drawing 1031]	–
80%	90%	Cc1cc2c(cc1Cc1ccc(C(=O)NCCc3cccnc3)o1)C(C)(C)CCC2(C)C [drawing 1032]	–
-20%	-26%	Cc1cc2c(cc1Cc1ccc(C(=O)NCCCNCCCCNCCCN)o1)C(C)(C)CCC2(C)C [drawing 1034]	–
-12%	0%	Cc1cc2c(cc1Cc1ccc(C(=O)NC3CCN(c4nccc(NCC5CCCO5)n4)C3)o1)C(C)(C)CCC2(C)C (stereo not drawn) [drawing 1036]	–
35%	35%	Cc1cc2c(cc1Cc1ccc(C(=O)NCC3CCN(c4nccc(NCC5CCCO5)n4)CC3)o1)C(C)(C)CCC2(C)C (stereo not drawn) [drawing 1037]	–
-2%	4%	Cc1cc2c(cc1Cc1ccc(C(=O)NCCc3cccc(Oc4ccccc4)c3)o1)C(C)(C)CCC2(C)C [drawing 1039]	–
-11%	-8%	Cc1cc2c(cc1Cc1ccc(C(=O)NCCc3ccccc3Oc3ccccc3)o1)C(C)(C)CCC2(C)C [drawing 1040]	–
32%	44%	Cc1cc2c(cc1Cc1ccc(C(=O)NCCN3CCNC3=O)o1)C(C)(C)CCC2(C)C [drawing 1041]	–
-1%	-9%	Cc1cc2c(cc1Cc1ccc(C(=O)NCCNCCNc3ccccc3)o1)C(C)(C)CCC2(C)C [drawing 1043]	–
17%	25%	Cc1cc2c(cc1Cc1ccc(C(=O)NC3CCCC(Nc4ccnc(NCC5CCCO5)n4)C3)o1)C(C)(C)CCC2(C)C (stereo not drawn) [drawing 1045]	–
27%	38%	Cc1cc2c(cc1Cc1ccc(C(=O)NCCCCNc3nccc(NCC4CCCO4)n3)o1)C(C)(C)CCC2(C)C (stereo not drawn) [drawing 1047]	–
35%	42%	Cc1cc2c(cc1Cc1ccc(C(=O)NCC3CN(Cc4ccccc4)CCO3)o1)C(C)(C)CCC2(C)C (stereo not drawn) [drawing 1049]	–
-3%	8%	Cc1cc2c(cc1Cc1ccc(C(=O)NCCCN3CCCCC3)o1)C(C)(C)CCC2(C)C [drawing 1050]	–
–	–	Cc1cc2c(cc1Cc1ccc(C(=O)NCCc3c[nH]cn3)o1)C(C)(C)CCC2(C)C [drawing 1051]	% Inhib. @ 1 uM hGnRH (1 uM): 32%; Repeats @ 1 uM hGnRH (repeat of % Inhib. at 1 uM): 36
71%	76%	Cc1cc2c(cc1Cc1ccc(C(=O)NCc3ccc(S(N)(=O)=O)cc3)o1)C(C)(C)CCC2(C)C [drawing 1052]	–
100%	101%	Cc1cc2c(cc1Cc1ccc(C(=O)NCc3nc4ccccc4[nH]3)o1)C(C)(C)CCC2(C)C [drawing 1053]	–
51%	56%	Cc1cc2c(cc1Cc1ccc(C(=O)NCCc3ccc4c(c3)OCO4)o1)C(C)(C)CCC2(C)C [drawing 1055]	–
21%	23%	COc1ccc(C(=O)CNC(=O)c2ccc(Cc3cc4c(cc3C)C(C)(C)CCC4(C)C)o2)cc1 [drawing 1056]	–
30%	44%	Cc1cc2c(cc1Cc1ccc(C(=O)NCCc3ccc([N+](=O)[O-])cc3)o1)C(C)(C)CCC2(C)C [drawing 1057]	–
